± gives the expanded uncertainty stated by the source.
Conditions: 101.33 kPa, Liquid, transient hot wire

CCCCCCCC(=O)OC [methyl octanoate]
Conditions	thermal conductivity [W/m/K]
273.56 K	0.145 ± 0.0059
278.48 K	0.1446 ± 0.0059
283.44 K	0.1428 ± 0.0058
288.35 K	0.1423 ± 0.0058
293.42 K	0.1405 ± 0.0057
298.33 K	0.1395 ± 0.0057
303.21 K	0.1387 ± 0.0057
308.29 K	0.1374 ± 0.0056
313.29 K	0.1361 ± 0.0056
318.22 K	0.1348 ± 0.0055
323.2 K	0.1335 ± 0.0055
328.3 K	0.132 ± 0.0054
333.41 K	0.1304 ± 0.0053
338.32 K	0.1294 ± 0.0053
343.27 K	0.1285 ± 0.0053
348.12 K	0.1275 ± 0.0052
353.23 K	0.126 ± 0.0052
358.28 K	0.1246 ± 0.0051
363.09 K	0.1238 ± 0.0051
368.27 K	0.1223 ± 0.005
373.24 K	0.1212 ± 0.005
378.21 K	0.1196 ± 0.0049
383.17 K	0.1189 ± 0.0049
388.44 K	0.1173 ± 0.0048
393.54 K	0.116 ± 0.0047

CCO [ethanol]
Conditions	thermal conductivity [W/m/K]
276.51 K	0.1719 ± 0.0069
280.8 K	0.1687 ± 0.0068
284.27 K	0.1699 ± 0.0068
290.37 K	0.1677 ± 0.0067
293.43 K	0.1658 ± 0.0067

CCCC(=O)OC [methyl butanoate]
Conditions	thermal conductivity [W/m/K]
283.34 K	0.1459 ± 0.0059
288.3 K	0.1442 ± 0.0058
293.39 K	0.1416 ± 0.0057
297.41 K	0.1401 ± 0.0056
298.44 K	0.1397 ± 0.0056
301.3 K	0.1391 ± 0.0056
305.42 K	0.1372 ± 0.0055
309.31 K	0.136 ± 0.0055
313.29 K	0.1353 ± 0.0054
318.38 K	0.1333 ± 0.0054
323.35 K	0.1314 ± 0.0053
328.55 K	0.1295 ± 0.0052
333.25 K	0.128 ± 0.0052
338.4 K	0.1261 ± 0.0051
343.25 K	0.1249 ± 0.005
348.24 K	0.1233 ± 0.005
353.35 K	0.1215 ± 0.0049
358.18 K	0.1207 ± 0.0049

CCCCC(=O)OC [methyl pentanoate]
Conditions	thermal conductivity [W/m/K]
285.55 K	0.143 ± 0.0058
290.39 K	0.1405 ± 0.0057
295.51 K	0.1385 ± 0.0056
298.99 K	0.1373 ± 0.0055
305.5 K	0.1356 ± 0.0055
312.35 K	0.1336 ± 0.0054
320.42 K	0.1313 ± 0.0053
327.35 K	0.1295 ± 0.0052
333.5 K	0.1272 ± 0.0051
340.41 K	0.1246 ± 0.005
348.36 K	0.1229 ± 0.005
355.39 K	0.1212 ± 0.0049
362.16 K	0.1194 ± 0.0048

CCCCCCCCC(=O)OC [methyl nonanoate]
Conditions	thermal conductivity [W/m/K]
278.44 K	0.1448 ± 0.0059
283.5 K	0.1441 ± 0.0059
288.5 K	0.1428 ± 0.0058
293.36 K	0.1418 ± 0.0058
298.3 K	0.141 ± 0.0058
303.31 K	0.1393 ± 0.0057
308.24 K	0.1387 ± 0.0057
313.3 K	0.1371 ± 0.0056
318.29 K	0.1365 ± 0.0056
323.25 K	0.1347 ± 0.0055
328.25 K	0.1337 ± 0.0055
333.06 K	0.1327 ± 0.0054
338.16 K	0.1313 ± 0.0054
343.23 K	0.1299 ± 0.0053
348.07 K	0.1289 ± 0.0053
353.12 K	0.1277 ± 0.0052
358.24 K	0.1263 ± 0.0052
363.07 K	0.1256 ± 0.0051
368.1 K	0.1242 ± 0.0051
373.11 K	0.1227 ± 0.005
378.24 K	0.1213 ± 0.005
383.21 K	0.1207 ± 0.0049

CCCCCC(=O)OC [methyl hexanoate]
Conditions	thermal conductivity [W/m/K]
263.83 K	0.1482 ± 0.006
268.65 K	0.1472 ± 0.0059
273.7 K	0.1448 ± 0.0058
278.59 K	0.1439 ± 0.0058
283.75 K	0.142 ± 0.0057
288.67 K	0.1405 ± 0.0057
293.64 K	0.1395 ± 0.0056
298.72 K	0.1376 ± 0.0055
303.63 K	0.1367 ± 0.0055
308.61 K	0.1344 ± 0.0054
313.6 K	0.1336 ± 0.0054
321.08 K	0.1315 ± 0.0053
328.54 K	0.1301 ± 0.0052
333.52 K	0.1284 ± 0.0052
338.55 K	0.1269 ± 0.0051
343.49 K	0.1259 ± 0.0051
348.48 K	0.1243 ± 0.005
353.7 K	0.1231 ± 0.005
358.38 K	0.1219 ± 0.0049
363.41 K	0.1205 ± 0.0049
368.5 K	0.1191 ± 0.0048

O [water]
Conditions	thermal conductivity [W/m/K]
293.09 K	0.6056 ± 0.024
299.55 K	0.613 ± 0.025
309.83 K	0.6313 ± 0.025
314.96 K	0.6399 ± 0.026
319.56 K	0.6399 ± 0.026
324.64 K	0.6492 ± 0.026
332.53 K	0.6555 ± 0.026
339.33 K	0.657 ± 0.026
340.41 K	0.6654 ± 0.027
349.41 K	0.6723 ± 0.027
